Results on 14 molecules are retold here after PubChem BioAssay (NCI).

The structures appear in SMILES notation.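 The compound was tested at five concentrations on cells cultured in 96-well plates, with a 48-hour exposure period. GI50 = concentration required for 50% inhibition of growth. TGI: total growth inhibition.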

Test systems include OVCAR-4 ovarian; HOP-92 NSCLC; IGROV1 ovarian; NCI-H226 lung; SW-620 colon; COLO 205 colon; T-47D breast.
What all share (assay): DTP human tumour cell line panel, 48 h

In the case of `O=C([O-])c1ccccc1Nc1ccccn1.O=C([O-])c1ccccc1Nc1ccccn1.[Ni+2]`, the GI50 (commonly the concentration at which growth is held to half of that of the control) with OVCAR-4 ovarian was > 100 µM; in the experiment on HOP-92 NSCLC, 37100 nM; with IGROV1 ovarian it was > 100 µM; with NCI-H226 lung, 33.9 µM; in the experiment with SW-620 colon, > 100000 nM; with COLO 205 colon, > 100 µM. Also, the TGI – broadly, the concentration giving total growth inhibition – in the experiment on OVCAR-4 ovarian was > 100 µM; in the experiment with HOP-92 NSCLC, 92.8 µM; with IGROV1 ovarian it was > 100 µM; in the experiment on NCI-H226 lung, > 100 µM; with SW-620 colon, > 100 µM; with COLO 205 colon it was > 100 µM.
For `CC(C)(C)C#CC1=C(Br)C(=O)OC1`, the GI50 in the experiment with OVCAR-4 ovarian was 1.85 µM; in the experiment on T-47D breast, 16.5 µM; in the experiment with HOP-92 NSCLC, 2820 nM; in the experiment with IGROV1 ovarian it was 4.97 µM; in the experiment on NCI-H226 lung, 23 µM; with COLO 205 colon it was 31.6 µM. Besides, the TGI is 19.6 µM in the experiment with OVCAR-4 ovarian; 66.8 µM in the experiment on T-47D breast; 9.2 µM in the experiment with HOP-92 NSCLC; 23.2 µM in the experiment on IGROV1 ovarian; 68.1 µM in the experiment on NCI-H226 lung; > 24.9 µM with SW-620 colon. The TGI with COLO 205 colon is > 100 µM.
In the case of `Cc1ccc(S(=O)(=O)N2CCSCCSCCSCCSCC2)cc1`, the TGI in the experiment with OVCAR-4 ovarian was 64.2 µM; with T-47D breast it was 74.1 µM; with HOP-92 NSCLC it was 23.4 µM; in the experiment on IGROV1 ovarian, > 100 µM; in the experiment with NCI-H226 lung, > 82.2 µM; in the experiment with SW-620 colon, > 100 µM. Further, the TGI in the experiment with COLO 205 colon was > 100 µM.
On to `COC(=O)[C@]12CC[C@@H](C)[C@H](C)[C@@H]1C1=CC[C@@H]3[C@@]4(C)C[C@@H](OC(C)=O)[C@H](O)[C@@](C)(COC(C)=O)[C@@H]4[C@H](O)C[C@@]3(C)[C@]1(C)CC2`, for which the GI50 in the experiment on OVCAR-4 ovarian is 3.23 µM; in the experiment with T-47D breast, 2.44 µM; in the experiment with HOP-92 NSCLC, 1530 nM; in the experiment on IGROV1 ovarian, 1.87 µM; with NCI-H226 lung, 3.19 µM; in the experiment on SW-620 colon, 2750 nM. The GI50 in the experiment on COLO 205 colon is 1.63 µM. In addition, the TGI with OVCAR-4 ovarian is 14.2 µM; in the experiment with T-47D breast it was 8.02 µM; in the experiment with HOP-92 NSCLC, 5.68 µM; with IGROV1 ovarian, 4.81 µM; in the experiment on NCI-H226 lung, 8.54 µM; with SW-620 colon it was 8.76 µM. Further, in the experiment on COLO 205 colon, the TGI was found to be 3.2 µM.
Consider `CC/C=C\C=C/C(=O)N/C=C/CC1Cc2cccc(O)c2C(=O)O1` (stereo not drawn), for which the GI50 with OVCAR-4 ovarian was 44.4 µM; in the experiment with T-47D breast it was 36.1 µM; in the experiment with IGROV1 ovarian it was 38 µM; in the experiment with NCI-H226 lung, 39.6 µM; with SW-620 colon it was 13800 nM; in the experiment with COLO 205 colon, 20.3 µM. Also, the total growth inhibition concentration (TGI) with OVCAR-4 ovarian is > 100 µM; in the experiment with T-47D breast, > 100 µM; in the experiment with IGROV1 ovarian, > 100 µM; in the experiment on NCI-H226 lung, > 100 µM; in the experiment with SW-620 colon, 28.2 µM; with COLO 205 colon it was 41.2 µM.
On to `CCCN=Cc1cc(Cc2ccc(O)c(C=NCCC)c2)ccc1O`, for which the TGI was 86.1 µM in the experiment with OVCAR-4 ovarian; 6.33 µM in the experiment on T-47D breast; 8.03 µM in the experiment with HOP-92 NSCLC; 37.2 µM in the experiment with IGROV1 ovarian; 51.2 µM in the experiment with NCI-H226 lung; 15.9 µM in the experiment on SW-620 colon. This molecule displayed a total growth inhibition concentration (TGI) with COLO 205 colon of 34.2 µM.
Take `O=C1OC(=O)C(c2c[nH]c3ccccc23)=C1c1c[nH]c2ccccc12`: the GI50 in the experiment with OVCAR-4 ovarian was > 25 µM; with T-47D breast, > 25 µM; in the experiment with IGROV1 ovarian it was > 25 µM; with NCI-H226 lung it was > 25 µM; in the experiment on SW-620 colon, > 25000 nM; in the experiment with COLO 205 colon, > 25 µM. Further, the concentration for total growth inhibition (TGI) in the experiment with OVCAR-4 ovarian, in the experiment with T-47D breast, with IGROV1 ovarian, with NCI-H226 lung, in the experiment on SW-620 colon and with COLO 205 colon was > 25 µM in each case.
Turning to `Cc1c(C(=O)/C=C/c2csc3ccccc23)[n+](=O)c2ccccc2n1[O-]`, the GI50 was 1.98 µM in the experiment with OVCAR-4 ovarian; 1.92 µM in the experiment with T-47D breast; 1.34 µM with IGROV1 ovarian; 1.82 µM with NCI-H226 lung; 1490 nM in the experiment on SW-620 colon. In addition, the TGI is 4.83 µM in the experiment on OVCAR-4 ovarian; 5.81 µM in the experiment on T-47D breast; 3.04 µM in the experiment with IGROV1 ovarian; 4.94 µM in the experiment with NCI-H226 lung; 2.81 µM with SW-620 colon.
Turning to `O=C(c1ccccc1)C1N=NCC1c1ccc([N+](=O)[O-])cc1` (stereo not drawn), the total growth inhibition concentration (TGI) in the experiment with OVCAR-4 ovarian was > 100 µM; in the experiment on T-47D breast, 30.9 µM; with HOP-92 NSCLC, 88.1 µM; in the experiment on NCI-H226 lung it was > 100 µM; with SW-620 colon, > 100 µM; in the experiment with COLO 205 colon, > 100 µM.
With `Nc1ccn(Cc2ccc(C34CC5CC(CC(C5)C3)C4)c(O)c2)c(=O)n1`, the GI50 in the experiment with OVCAR-4 ovarian is > 100 µM; in the experiment on T-47D breast it was > 100 µM; with HOP-92 NSCLC, 22500 nM; with NCI-H226 lung, > 100 µM; in the experiment on SW-620 colon, > 100000 nM; with COLO 205 colon, > 100 µM. Also, the TGI in the experiment on OVCAR-4 ovarian was > 100 µM; with T-47D breast, > 100 µM; with HOP-92 NSCLC, 71.4 µM; in the experiment with NCI-H226 lung it was > 100 µM; in the experiment on SW-620 colon, > 100 µM; in the experiment on COLO 205 colon, > 100 µM.
As for `COC1(C(=O)N[C@@H](C)c2ccc(-n3cc(F)cn3)nc2)CCC(c2nc(C)cc(Nc3cc(C)[nH]n3)n2)CC1` (stereo partly drawn), the GI50 is 1.94 µM with OVCAR-4 ovarian; 2.17 µM in the experiment on T-47D breast; 481 nM in the experiment on HOP-92 NSCLC; 0.222 µM in the experiment on NCI-H226 lung; 2320 nM in the experiment with SW-620 colon; 3.83 µM in the experiment on COLO 205 colon. Also, the concentration for total growth inhibition (TGI) in the experiment with OVCAR-4 ovarian is 17.9 µM; in the experiment with T-47D breast, 21.7 µM; in the experiment on HOP-92 NSCLC, 2.58 µM; in the experiment with NCI-H226 lung it was 11.7 µM; with SW-620 colon, 24.2 µM; with COLO 205 colon, 23.7 µM.
On to `CCN1C(=O)N(CC)C2C1NN=c1s/c(=C\c3cccnc3)c(=O)n12` (stereo not drawn), for which the GI50 with OVCAR-4 ovarian was 5.72 µM; with IGROV1 ovarian, 0.843 µM; with NCI-H226 lung, 1.1 µM; in the experiment with SW-620 colon, 393 nM; in the experiment with COLO 205 colon, 0.392 µM. Also, the concentration for total growth inhibition (TGI) in the experiment on OVCAR-4 ovarian is > 100 µM; with HOP-92 NSCLC, > 100 µM; in the experiment with IGROV1 ovarian it was > 100 µM; with NCI-H226 lung it was > 100 µM; in the experiment with SW-620 colon, > 100 µM; in the experiment on COLO 205 colon it was > 53.3 µM.
Consider `COc1ccc(N2C(=O)c3c4c(c5c([nH]c6ncccc65)c3C2=O)CCC(C(C)(C)C)C4)cc1` (stereo not drawn), for which the total growth inhibition concentration (TGI) in the experiment on OVCAR-4 ovarian, with T-47D breast, in the experiment with IGROV1 ovarian, with NCI-H226 lung, in the experiment with SW-620 colon and in the experiment on COLO 205 colon was > 100 µM each time.
For the molecule `CN(C)/C=C/c1nnc([N+](=O)[O-])s1`, the TGI amounted to 38.9 µM in the experiment with T-47D breast, 41.9 µM with NCI-H226 lung, 33.1 µM in the experiment on SW-620 colon and 10.3 µM in the experiment on COLO 205 colon.
